Source: patent US20260317320A1, “C5AR1 ANTAGONISTS AND USES THEREOF” (Vanqua Bio, Inc., priority 2022, published 2026)

What was measured:
[1] = molecular target: T1, complement C5a receptor 1 (C5aR1) (Homo sapiens, UniProt P21730); assay: β-arrestin recruitment via C5aR1 activation in live CHO-K1 cells (PathHunter), agonist mode; format: cell-based
T1 construct: β-galactosidase fragment (PathHunter enzyme complementation); host or cells: CHO-K1 (PathHunter CHO-K1 C5aR1 β-arrestin cell line)
T1 sequence (P21730 1-350): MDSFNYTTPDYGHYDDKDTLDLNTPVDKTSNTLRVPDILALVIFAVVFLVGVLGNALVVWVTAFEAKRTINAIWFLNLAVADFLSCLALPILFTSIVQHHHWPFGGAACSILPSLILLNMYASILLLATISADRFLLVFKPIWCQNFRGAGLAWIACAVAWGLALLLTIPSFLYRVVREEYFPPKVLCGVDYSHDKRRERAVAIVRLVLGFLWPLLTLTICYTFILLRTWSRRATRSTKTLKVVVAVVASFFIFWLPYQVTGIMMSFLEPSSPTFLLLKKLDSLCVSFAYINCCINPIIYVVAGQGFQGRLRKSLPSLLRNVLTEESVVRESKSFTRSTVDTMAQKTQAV
How it was run: (§1)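 Live CHO-K1 cells expressing β-galactosidase fragments fused to β-arrestin and C5aR1; recruitment is read by fragment complementation. In agonist mode compounds are tested alone; in antagonist mode they compete against recombinant hC5a at EC90. IC50 reported in binned ranges.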

[2] = molecular target: T1, complement C5a receptor 1 (C5aR1); assay: β-arrestin recruitment via C5aR1 activation in live CHO-K1 cells (PathHunter), antagonist mode; format: cell-based; details: antagonist mode; recombinant hC5a (EC90) as competing natural agonist; live CHO-K1 cells; read-out: [Antagonist] B-arrestin2 recruitment: Average IC50
How it was run: as §1

| [Agonist] B-arrestin2 recruitment: Average EC50 (nM) [1] | IC50 [2] [µM] | Structure (SMILES) |
| --- | --- | --- |
| Non-Active | > 100 | COc1cnc2cc(C3CCN(c4c(C)cccc4F)CC3)c(=O)n(Cc3ncccc3C(F)(F)F)c2n1 [compound 54, 7-(1-(2-Fluoro-6-methylphenyl)piperidin-4-yl)-3-methoxy-5-((3-(trifluoromethyl)pyridin-2-yl)methyl)pyrido[2,3-b]pyrazin-6(5H)-one] |
| Non-Active | < 0.5 | Cc1cccc(F)c1N1CCC(c2c(C)c3nccnc3n(Cc3ncccc3C(F)(F)F)c2=O)CC1 [compound 57, 7-(1-(2-Fluoro-6-methylphenyl)piperidin-4-yl)-8-methyl-5-((3-(trifluoromethyl)pyridin-2-yl)methyl)pyrido[2,3-b]pyrazin-6(5H)-one] |
| Non-Active | 0.5 to 5 | COc1cnc2cc(C3CCN(c4c(C)cccc4F)CC3)c(=O)n(Cc3ccccc3C(F)(F)F)c2n1 [compound 58, 7-(1-(2-Fluoro-6-methylphenyl)piperidin-4-yl)-3-methoxy-5-(2-(trifluoromethyl)benzyl)pyrido[2,3-b]pyrazin-6(5H)-one] |

Further lines, the compound ahead of its results:

| Structure (SMILES) | [Agonist] B-arrestin2 recruitment: Average EC50 (nM) [1] | IC50 [2] [µM] |
| --- | --- | --- |
| Cc1cnc2c(cc(C3CCN(c4c(C)cccc4F)CC3)c(=O)n2Cc2ccccc2C(F)(F)F)n1 [compound 55, 7-(1-(2-Fluoro-6-methylphenyl)piperidin-4-yl)-2-methyl-5-(2-(trifluoromethyl)-benzyl)-pyrido[2,3-b]pyrazin-6(5H)-one] | Non-Active | 0.5 to 5 |
| Cc1cnc2cc(C3CCN(c4cc(F)cnc4C)CC3)c(=O)n(Cc3ncccc3C(F)(F)F)c2n1 [compound 56, 7-(1-(5-fluoro-2-methylpyridin-3-yl)piperidin-4-yl)-3-methyl-5-((3-(trifluoromethyl)-pyridin-2-yl)methyl)pyrido[2,3-b]pyrazin-6(5H)-one] | Non-Active | 5 to 100 |
| Cc1cnc2cc(N3CCN(c4cc(F)cnc4C)CC3)c(=O)n(Cc3nccnc3C(F)(F)F)c2n1 [compound 59, 7-(4-(5-Fluoro-2-methylpyridin-3-yl)piperazin-1-yl)-3-methyl-5-((3-(trifluoromethyl)pyrazin-2-yl)methyl)pyrido[2,3-b]pyrazin-6(5H)-one] | Non-Active | > 100 |
| O=c1c(C2CCN(c3cnccc3C(F)(F)F)CC2)cc2nccnc2n1Cc1ncccc1C(F)(F)F [compound 60, 5-((3-(trifluoromethyl)pyridin-2-yl)methyl)-7-(1-(4-(trifluoromethyl)pyridin-3-yl)piperidin-4-yl)pyrido[2,3-b]pyrazin-6(5H)-one] | Non-Active | < 0.5 |
| Cc1ccnc(F)c1N1CCC(c2c(C)c3nccnc3n(Cc3ncccc3C(F)(F)F)c2=O)CC1 [compound 62, 7-(1-(2-Fluoro-4-methylpyridin-3-yl)piperidin-4-yl)-8-methyl-5-((3-(trifluoromethyl)pyridin-2-yl)methyl)pyrido[2,3-b]pyrazin-6(5H)-one] | Non-Active | 0.5 to 5 |
| Cc1cnc2c(C)c(C3CCN(c4c(C)ccnc4F)CC3)c(=O)n(Cc3nccnc3C(F)(F)F)c2n1 [compound 63, 7-(1-(2-Fluoro-4-methylpyridin-3-yl)piperidin-4-yl)-3,8-dimethyl-5-((3-(trifluoromethyl)pyrazin-2-yl)methyl)pyrido[2,3-b]pyrazin-6(5H)-one] | Non-Active | 0.5 to 5 |
| O=c1c(C2CCN(c3ccccc3C(F)(F)F)CC2)cc2nccnc2n1Cc1nccnc1C(F)(F)F [compound 64, 7-(1-(2-(Trifluoromethyl)phenyl)piperidin-4-yl)-5-((3-(trifluoromethyl)pyrazin-2-yl)methyl)pyrido[2,3-b]pyrazin-6(5H)-one] | Non-Active | 0.5 to 5 |
